Experimental data published in patent publication US20090203716A1, “Pyrimidine low molecular weight ligands for modulating hormone receptors” (The Government of the United States of America as …, priority 2006, published 2009).
“Also recorded” adds a separate entry of the source.

Experiments:
[1] = molecular target: T1, human TSH receptor (Homo sapiens, UniProt P16473); assay: intracellular cAMP accumulation, agonism at TSHR stably expressed in HEK EM 293 cells; format: cell-based; conditions: for % Max. Resp. @ TSHR in μM: % of maximum response of TSHR to TSH (100 mU/ml), * estimated maximum response at 100 μM compound; for EC50: cAMP, HEK EM 293 cells, dose response 0-100 μM compound, ** estimated EC50, no plateau
T1 construct: expressed in transfected cells
T1 sequence (P16473 21-764): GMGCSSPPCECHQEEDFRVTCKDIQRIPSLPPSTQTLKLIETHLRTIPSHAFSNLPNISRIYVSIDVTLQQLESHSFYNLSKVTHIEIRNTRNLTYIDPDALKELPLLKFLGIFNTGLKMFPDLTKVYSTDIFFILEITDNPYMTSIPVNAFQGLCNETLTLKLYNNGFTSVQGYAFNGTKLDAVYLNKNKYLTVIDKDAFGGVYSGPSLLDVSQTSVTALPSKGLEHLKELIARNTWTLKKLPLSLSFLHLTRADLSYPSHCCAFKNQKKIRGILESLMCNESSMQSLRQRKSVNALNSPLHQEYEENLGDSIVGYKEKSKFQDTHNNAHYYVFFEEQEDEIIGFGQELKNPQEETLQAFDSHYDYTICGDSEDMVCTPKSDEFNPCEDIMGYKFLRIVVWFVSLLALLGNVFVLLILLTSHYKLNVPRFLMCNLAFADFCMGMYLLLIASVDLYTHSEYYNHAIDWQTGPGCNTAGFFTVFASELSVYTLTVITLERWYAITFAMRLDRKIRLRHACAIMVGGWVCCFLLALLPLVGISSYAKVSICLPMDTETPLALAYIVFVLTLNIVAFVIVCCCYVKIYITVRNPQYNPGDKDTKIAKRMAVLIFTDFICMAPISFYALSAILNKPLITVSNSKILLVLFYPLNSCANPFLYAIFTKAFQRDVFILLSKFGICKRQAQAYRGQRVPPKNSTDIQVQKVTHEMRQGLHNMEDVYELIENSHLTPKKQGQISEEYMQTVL
Description: With reference to Table 1, exemplary disclosed compounds were evaluated against human TSH receptor and human LHCG receptor that were stably expressed in HEK 293 EM cells as previously described by Libert et al. (Biochem. Biophys. Res. Commun. 1989, 165, 1250-1255); and by Schulz et al. (Mol. Endocrinol. 1999, 13, 181-190). Cell surface expression of TSH receptor and LHCG receptor were determined via FACS analysis (Kleinau, G.; Jäschke, H.; Neumann, S.; Lättig, S.; Paschke, R.; Krause, G. J. Biol. Chem. 2004, 279, 51590-51600). Agonism of compounds 3-20 were determined via measurement of intracellular cyclic AMP accumulation. […] For example, […] certain compounds disclosed herein exerted no discernible effect on the FSH receptor.
Cells were cultured for 48 h in 24-well plates before incubation for 1 h in serum-free DMEM containing 1 mM 3-isobutyl-1-methylxanthine (IBMX) (SIGMA) and bovine TSH (1.8 μM) (SIGMA) or human LH (1000 ng/ml) (Dr. A. Parlow, NIDDK National Hormone and Pituitary Program) or compounds 3-19 (0-100 μM) in a humidified 5% CO2 incubator. Following aspiration of the medium after incubation with compounds, cells were lysed using lysis buffer 1 of the cAMP Biotrak Enzymeimmunoassay (EIA) System (Amersham Biosciences). The cAMP content of the cell lysate was determined using the manufacturer's protocol. The efficacy of receptor activation by small molecule modulators is expressed as % of maximum response of LHCG receptor or TSH receptor to LH or TSH, respectively. The potency (EC50) was obtained from dose response curves (0-100 μM compound) by data analysis with GraphPad Prism 4 for Windows. With reference to FIG. 1, intracellular cAMP production was determined in response to 100 μM of each compound and is expressed as % of maximum response of TSHR/LHCGR to TSH (100 mU/ml)/LH (1000 ng/ml). The data are presented as mean±SEM of two independent experiments, each performed in duplicate.
(§1) Transiently transfected cells were cultured for 48 hours before the cAMP assay. HEK-EM 293 cells stably expressing TSHR, LHCGR or FSHR were seeded into 24-well plates with a density of 2.2×10^5 cells/well 24 hours before the cAMP assay. After removal of growth medium, cells were incubated for 1 hour in HBSS (Cellgro) with 10 mM HEPES (Cellgro) containing 1 mM 3-isobutyl-1-methylxanthine (IBMX) (Sigma) and the ligand of interest in a humidified 5% CO2 incubator at 37° C. The intracellular cAMP content was determined with the cAMP Biotrak Enzymeimmunoassay (EIA) System (GE Healthcare). Data were analyzed using GraphPad Prism 4 for Windows. Receptor expression was measured as described in Jaschke et al., J Biol Chem 281:9841-9844.

[2] = molecular target: T2, human LHCG receptor (Homo sapiens, UniProt P22888); assay: intracellular cAMP accumulation, agonism at LHCGR stably expressed in HEK EM 293 cells; format: cell-based; conditions: for % Max. Resp. @ LHCGR in μM: % of maximum response of LHCGR to LH (1000 ng/ml); for EC50: read-out: EC50 (LHCGR) in μM [95% C.I.], cAMP, HEK EM 293 cells, dose response 0-100 μM compound
T2 construct: expressed in transfected cells
T2 sequence (P22888 27-699): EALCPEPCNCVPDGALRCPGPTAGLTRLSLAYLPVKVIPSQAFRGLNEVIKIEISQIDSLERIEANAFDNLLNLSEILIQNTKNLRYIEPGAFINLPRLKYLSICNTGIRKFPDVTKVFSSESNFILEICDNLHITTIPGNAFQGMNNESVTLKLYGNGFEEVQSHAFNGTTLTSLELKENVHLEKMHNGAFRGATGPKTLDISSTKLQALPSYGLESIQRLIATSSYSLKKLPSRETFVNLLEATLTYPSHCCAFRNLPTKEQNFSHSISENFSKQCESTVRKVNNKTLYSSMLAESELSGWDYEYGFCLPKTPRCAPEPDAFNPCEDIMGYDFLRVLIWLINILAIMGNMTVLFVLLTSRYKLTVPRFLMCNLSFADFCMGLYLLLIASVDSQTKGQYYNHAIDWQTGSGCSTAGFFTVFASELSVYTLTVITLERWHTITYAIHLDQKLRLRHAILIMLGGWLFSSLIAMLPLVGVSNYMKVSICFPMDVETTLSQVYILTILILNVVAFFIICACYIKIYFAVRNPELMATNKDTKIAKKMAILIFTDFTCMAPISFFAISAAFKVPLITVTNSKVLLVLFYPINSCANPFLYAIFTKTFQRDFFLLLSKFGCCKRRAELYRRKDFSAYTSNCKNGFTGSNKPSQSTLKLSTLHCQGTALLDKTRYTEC
Description: With reference to Table 1, exemplary disclosed compounds were evaluated against human TSH receptor and human LHCG receptor that were stably expressed in HEK 293 EM cells as previously described by Libert et al. (Biochem. Biophys. Res. Commun. 1989, 165, 1250-1255); and by Schulz et al. (Mol. Endocrinol. 1999, 13, 181-190). Cell surface expression of TSH receptor and LHCG receptor were determined via FACS analysis (Kleinau, G.; Jäschke, H.; Neumann, S.; Lättig, S.; Paschke, R.; Krause, G. J. Biol. Chem. 2004, 279, 51590-51600).
Following aspiration of the medium after incubation with compounds, cells were lysed using lysis buffer 1 of the cAMP Biotrak Enzymeimmunoassay (EIA) System (Amersham Biosciences). The cAMP content of the cell lysate was determined using the manufacturer's protocol. […] The potency (EC50) was obtained from dose response curves (0-100 μM compound) by data analysis with GraphPad Prism 4 for Windows. […] The data are presented as mean±SEM of two independent experiments, each performed in duplicate.
as §1

[3] = molecular target: TSHR (Homo sapiens, UniProt P16473); assay: inhibition of TSH-mediated cAMP response in HEK-EM 293 cells stably expressing TSHR; format: cell-based; design: expressed in transfected cells
Chain of TSHR (P16473 21-764): as the sequence (P16473 21-764) above
Description: as §1
The TSH-mediated cAMP response of TSHR was inhibited by a maximum of 70.8±5.5% at 30 μM compound 52. […] Compound 52 has no activity at FSHR.
To exclude the possibility that compound 52 might be acting independently of TSHR by building aggregates with TSH, thereby inhibiting the TSH-induced response, tests were conducted for a possible aggregation between these two ligands. Compound 52 and TSH were preincubated for up to 15 minutes before addition to HEK-EM 293 cells stably expressing TSHR. […] There was no difference in the antagonistic effect whether TSH and compound 52 were preincubated together or not (data not shown) thereby excluding the possibility that its effect was caused by aggregation with TSH.

[4] = solubility; format: physicochemical; conditions: compared to compound 52

Compound	% Max. Resp. @ TSHR in μM [1]	EC50 [1] [nM]	% Max. Resp. @ LHCGR in μM [2] [%]	EC50 [2] [µM]	antagonistic activity at TSHR in cAMP assay [3]	solubility [4]
COc1cccc(-c2nc(SC)nc3sc(C(=O)OC(C)(C)C)c(N)c23)c1 [Compound 5, tert-butyl-5-amino-4-(3-methoxyphenyl)-2-(methylthio)thieno[2,3-d]pyrimidine-6-carboxylate]	>30.3* %	11900	23.8 ± 3.3	1.1	–	–
COc1cccc(-c2nc(SC)nc3sc(C(=O)NC(C)(C)C)c(N)c23)c1F [Compound 17, N-tert-butyl-5-amino-4-(2-fluoro-3-methoxyphenyl)-2-(methylthio)thieno[2,3-d]pyrimidine-6-carboxamide]	>24.0* %	11500	46.3 ± 6.6	1.5	–	–
CSc1nc(-c2cccc(F)c2)c2c(N)c(C(=O)NC(C)(C)C)sc2n1 [Compound 18, N-tert-butyl-5-amino-4-(3-fluorophenyl)-2-(methylthio)thieno[2,3-d]pyrimidine-6-carboxamide]	8.1 ± 1.7%	–	–	1.2	–	–
C[S+]([O-])C/C=C/c1ccc(-c2nc([S+](C)[O-])nc3sc(C(=O)NC(C)(C)C)c(N)c23)cc1 (stereo not drawn) [Compound 52/3]	–	–	–	–	antagonist activity similar to compound 52; also recorded: antagonistic activity	improved solubility
CSc1nc(-c2ccc(/C=C/CS(C)(=O)=O)cc2)c2c(N)c(C(=O)NC(C)(C)C)sc2n1 [Compound 52/1]	–	–	–	–	no antagonistic activity	–
COc1cccc(-c2nc(SC)nc3sc(C(=O)NCCO)c(N)c23)c1 [Compound 12, 5-amino-4-(3-methoxyphenyl)-N-(2-hydroxyethyl)-2-(methylthio)thieno[2,3-d]pyrimidine-6-carboxamide]	2.9 ± 0.5%	–	20.5 ± 2.7	–	–	–
CCNC(=O)c1sc2nc(SC)nc(-c3cccc(OC)c3)c2c1N [Compound 6, 5-amino-N-(ethyl)-4-(3-methoxyphenyl)-2-(methylthio)thieno[2,3-d]pyrimidine-6-carboxamide]	2.3 ± 0.4%	–	26.9 ± 4.8	–	–	–
COc1cccc(-c2nc(SC)nc3sc(C(=O)NN(C)C)c(N)c23)c1 [Compound 9, 5-amino-4-(3-methoxyphenyl)-N′N′-dimethyl-2-(methylthio)thieno[2,3-d]pyrimidine-6-carbohydrazide]	4.0 ± 0.1%	–	11.0 ± 1.5	–	–	–
COc1cccc(-c2nc(SC)nc3sc(C(=O)NNC(=O)OC(C)(C)C)c(N)c23)c1 [Compound 11, N′-Boc-5-amino-4-(3-methoxyphenyl)-2-(methylthio)thieno[2,3-d]pyrimidine-6-carbohydrazide]	1.9 ± 0.4%	–	2.4 ± 0.5	–	–	–
COc1cccc(-c2nc(SC)nc3sc(C(=O)NC(C)(C)C)c(N)c23)c1OC [Compound 16, N-tert-butyl-5-amino-4-(2,3-dimethoxyphenyl)-2-(methylthio)thieno[2,3-d]pyrimidine-6-carboxamide]	3.0 ± 0.9%	–	50.1 ± 3.6	0.8	–	–
COc1cccc(-c2nc(SC)nc3sc(C(=O)NCCc4ccccc4)c(N)c23)c1 [Compound 15, 5-amino-4-(3-methoxyphenyl)-2-(methylthio)-N-phenethylthieno[2,3-d]pyrimidine-6-carboxamide]	4.3 ± 0.4%	–	25.6 ± 5.4	–	–	–
COc1cccc(-c2nc(SC)nc3sc(C(=O)NNC(C)(C)C)c(N)c23)c1 [Compound 10, N′-tert-butyl-5-amino-4-(3-methoxyphenyl)-2-(methylthio)thieno[2,3-d]pyrimidine-6-carbohydrazide]	6.4 ± 0.6%	–	6.0 ± 3.1	–	–	–
COc1cccc(-c2nc(SC)nc3sc(C(=O)NCc4ccccc4)c(N)c23)c1 [Compound 14, 5-amino-N-benzyl-4-(3-methoxyphenyl)-2-(methylthio)thieno[2,3-d]pyrimidine-6-carboxamide]	3.0 ± 1.2%	–	7.8 ± 2.7	–	–	–
COc1cccc(-c2nc(SC)nc3sc(C(=O)N(C)C(C)(C)C)c(N)c23)c1 [Compound 7, N-tert-butyl-5-amino-4-(3-methoxyphenyl)-N-methyl-2-(methylthio)thieno[2,3-d]pyrimidine-6-carboxamide]	3.6 ± 1.9%	–	47.8 ± 2.8	0.8	–	–
CSc1nc(-c2cccc(O)c2)c2c(N)c(C(=O)NC(C)(C)C)sc2n1 [Compound 19, N-tert-butyl-5-amino-4-(3-hydroxyphenyl)-2-(methylthio)thieno[2,3-d]pyrimidine-6-carboxamide]	11.2 ± 1.0%	–	63.9 ± 14.2	1.9	–	–
COc1cccc(-c2nc(SC)nc3sc(C(=O)NCC#N)c(N)c23)c1 [Compound 13, 5-amino-N-(cyanomethyl)-4-(3-methoxyphenyl)-2-(methylthio)thieno[2,3-d]pyrimidine-6-carboxamide]	3.6 ± 0.6%	–	20.3 ± 2.1	–	–	–
CCOC(=O)c1sc2nc(SC)nc(-c3cccc(OC)c3)c2c1N [Compound 4, ethyl-5-amino-4-(3-methoxyphenyl)-2-(methylthio)thieno[2,3-d]pyrimidine-6-carboxylate]	1.5 ± 0.2%	–	4.2 ± 2.2	–	–	–
COc1cccc(-c2nc(SC)nc3sc(C(=O)NN)c(N)c23)c1 [Compound 8, 5-amino-4-(3-methoxyphenyl)-2-(methylthio)thieno[2,3-d]pyrimidine-6-carbohydrazide]	6.1 ± 0.8%	–	8.5 ± 3.6	–	–	–
